# Source: US20030236291A1, “Use of citreamicins” (priority 2000, published 2003)
# Experiments:
# Assay type in all cases: cell-based
# [1] = tested on: P388 (ATCC CCL-46, suspension culture of a lymphoid neoplasm from DBA/2 mouse); test: In vitro antitumor screening, growth inhibition of P388 cells
# Source text: (§1) Its antitumor activity has been detected in vitro by culturing the tumor cells following the methodology described by
# (§2) (1): Raymond I. Bergeron, Paul F. Cavanaugh, Jr., Steven J. Mine, Robert G. Hughes, Jr., Gary T. Elliot and Carl W. Porter. Antineoplastic and antiherpetic activity of spermidine catecholamide iron chelators. Biochem. Bioph. Res. Comm. 1984, 121(3): 848-854; and
# (§3) (2). Alan C. Schroeder, Robert G. Hughes, Jr. and Alexander Bloch. Effects of Acycic Pyrimidine Nucleoside Analoges. J. Med. Chem. 1981, 24:1078-1083.
# (§4) Cells were maintained in logarithmic phase of growth in Eagle's Minimum Essential Medium, with Earle's Balanced Salts, with 2.0 mM L-glutamine, with non-essential amino acids, without sodium bicarbonate (EMEM/neaa); supplemented with 10% Fetal Calf Serum (FCS), 10^−2 M sodium bicarbonate and 0.1 g/l penicillin-G +streptomycin sulfate.
# A screening procedure has been carried out to determine and compare the antitumor activity of citreamicin CL, using an adapted form of the method described by Bergeron et al. The antitumor cells employed were P388 (ATCC CCL-46, suspension culture of a lymphoid neoplasm from DBA/2 mouse), A549 (ATCC CCL-185, monolayer culture of a human lung carcinoma) and HT-29 (ATCC HTB-38, monolayer culture of a human colon carcinoma). […]
# [2] = tested on: A549 (ATCC CCL-185, monolayer culture of a human lung carcinoma); test: In vitro antitumor screening, growth inhibition of A549 cells (Crystal Violet); details: approximate IC50; three days of incubation at 37° C.; Crystal Violet staining; duplicate
# Source text: as §1, §2, §3
# as §4, with “sulfate. […]” for “sulfate.”
# (§5) A549 and HT-29 cells were seeded into 16 mm wells at 2×10^4 cells per well in 1 ml aliquots of MEM 1OFCS containing the indicated concentration of drug. […] An approximate IC50 was determined by comparing the growth in wells with drug to the growth in wells control.
# [3] = tested on: HT-29 (ATCC HTB-38, monolayer culture of a human colon carcinoma); test: In vitro antitumor screening, growth inhibition of HT-29 cells (Crystal Violet); details: approximate IC50; three days of incubation at 37° C.; Crystal Violet staining; duplicate
# Source text: as §1, §2, §3
# as §4, with “sulfate. […]” for “sulfate.”
# as §5
smiles,measurement,setting,value
"COc1cc2oc3c(c(=O)c2cc1OC)C(=O)c1c(ccc2cc4c(c(O)c12)C(=O)N1C(C)(C4)OC(=O)C1(C)COC(=O)CC(C)C)C3=O (stereo not drawn) [Citreamicin α, citreamicin α]",IC50,"[1]; approximate IC50, three days of incubation at 37° C., growth in wells with drug vs control wells, duplicate",3 nM
same,in vitro antitumor activity,[1]; cell line derived from mouse lymphoma,exhibits in vitro antitumor activity
same,IC50,[2],4 nM
same,IC50,[3],4 nM
